Results taken from ChEMBL document CHEMBL4706476, “Novel Tetrahydropyrido[4,3-d]pyrimidines as Potent Inhibitors of Chaperone Heat Shock Protein 90” (J Med Chem, 2016).
≈ marks a conversion by molar mass, not a printed value.

Columns and labels:
[1] = biological target: Heat shock protein HSP 90-alpha (Homo sapiens, UniProt P07900); assay: Displacement of FITC-geldanamycin from N-terminal HSP90alpha (unknown origin) after 30 mins by fluorescence polarization competitive binding assay
HCT-116 = assay: cells; conditions: Homo sapiens, HCT-116, 72 h
Description: Antiproliferative activity against human HCT-116 cells assessed as reduction in cell viability incubated for 72 hrs by MTT assay

MCF7 = assay: cells; conditions: Homo sapiens, MCF7, 72 h
[2] = Distribution coefficient, logD of compound at pH 7.4; assay type: physicochemical; conditions: octanol/water
[3] = Permeability of the compound at pH 7.4 by PAMPA; assay type: ADME; conditions: read-out: permeability
[4] = Intrinsic aqueous solubility of the compound; assay type: physicochemical
Endoplasmin = Endoplasmin (Homo sapiens, UniProt P14625); assay: Displacement of FITC-geldanamycin from N-terminal GRP94 (unknown origin) after 30 mins by fluorescence polarization competitive binding assay
[5] = Selectivity ratio of IC50 for inhibition of FITC-geldanamycin binding to N-terminal GRP94 (unknown origin) to IC50 for inhibition of FITC-geldanamycin binding to N-terminal HSP90alpha (unknown origin)

Chain of Endoplasmin (P14625 whole entry): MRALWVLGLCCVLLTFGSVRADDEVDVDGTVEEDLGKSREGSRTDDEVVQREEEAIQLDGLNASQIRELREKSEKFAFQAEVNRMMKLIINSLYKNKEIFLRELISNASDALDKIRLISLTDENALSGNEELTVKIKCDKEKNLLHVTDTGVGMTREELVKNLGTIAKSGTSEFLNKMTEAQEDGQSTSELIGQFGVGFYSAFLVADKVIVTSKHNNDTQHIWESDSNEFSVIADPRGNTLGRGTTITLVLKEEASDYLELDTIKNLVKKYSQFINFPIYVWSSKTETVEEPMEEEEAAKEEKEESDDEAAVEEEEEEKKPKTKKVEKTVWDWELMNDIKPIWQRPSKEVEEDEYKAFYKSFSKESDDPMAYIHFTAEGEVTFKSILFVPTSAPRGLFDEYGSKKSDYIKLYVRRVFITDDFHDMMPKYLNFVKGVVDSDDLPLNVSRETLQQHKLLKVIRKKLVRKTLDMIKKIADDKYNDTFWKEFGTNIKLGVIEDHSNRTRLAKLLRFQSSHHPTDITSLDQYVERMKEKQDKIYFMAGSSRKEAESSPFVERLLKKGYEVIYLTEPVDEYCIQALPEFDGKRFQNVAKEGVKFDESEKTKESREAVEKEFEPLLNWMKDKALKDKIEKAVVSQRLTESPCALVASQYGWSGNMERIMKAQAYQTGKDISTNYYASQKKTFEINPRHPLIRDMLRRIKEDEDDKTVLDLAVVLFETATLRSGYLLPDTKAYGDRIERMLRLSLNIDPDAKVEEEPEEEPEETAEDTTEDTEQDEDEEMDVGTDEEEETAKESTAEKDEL

Row | SMILES | IC50 [1] [nM] | IC50 (HCT-116) [nM] | IC50 (MCF7) [nM] | logD [2] | Papp [3] [×10⁻⁶ cm/s] | solubility [4] [µg/mL] | IC50 (Endoplasmin) [nM] | Ratio IC50 [5]
1 | CC(C)c1cc(C(=O)N2CCc3nc(N4CCCC4)ncc3C2)c(O)cc1O | 113 | 1140 | 4550 |  |  |  |  | 
2 | CC(C)c1cc(C(=O)N2CCc3nc(N4CCN(C)CC4)ncc3C2)c(O)cc1O | 271 | 1710 | 2180 |  |  |  |  | 
3 | COCCOc1nc2c(c(NC3CC3)n1)CN(C(=O)c1cc(C(C)C)c(O)cc1O)CC2 | 19 | 230 | 160 | 2.45 | 56.4 | 157 (≈ 355 µM) | 216 | 11.4
4 | CC(C)c1cc(C(=O)N2CCc3nc(OCCCN(C)C)ncc3C2)c(O)cc1O | 36 | 920 | 2370 | 1.09 | 4.15 | 156 (≈ 375 µM) |  | 
5 | CC(C)c1cc(C(=O)N2CCc3nc(OC4CCCCC4)ncc3C2)c(O)cc1O | 103 | 2780 | 1870 |  |  |  |  | 
6 | Cc1ncc2c(n1)CN(C(=O)c1cc(Br)c(O)cc1O)C2 | 262 | 1550 | 3720 |  |  |  |  | 
7 | CC(C)c1cc(C(=O)N2CCc3nc(N4CCOCC4)ncc3C2)c(O)cc1O | 110 | 1470 | 1820 |  |  |  |  | 
8 | CC(C)Oc1ncc2c(n1)CCN(C(=O)c1cc(C(C)C)c(O)cc1O)C2 | 65 | 1240 | 960 |  |  |  | 518 | 8
9 | CCN(CC)c1ncc2c(n1)CCN(C(=O)c1cc(C(C)C)c(O)cc1O)C2 | 201 | 4420 | 2160 |  |  |  |  | 
10 | CCCN(CCC)c1ncc2c(n1)CCN(C(=O)c1cc(C(C)C)c(O)cc1O)C2 | 370 | 5700 | 3090 |  |  |  |  | 
11 | Cc1ncc2c(n1)CCN(C(=O)c1cc(C(C)C)c(O)cc1O)C2 | 26 | 1150 | 1480 |  | 33.3 |  | 245 | 9.4
12 | CCNc1ncc2c(n1)CCN(C(=O)c1cc(C(C)C)c(O)cc1O)C2 | 167 | 1560 | 1580 |  |  |  |  | 
13 | CCCNc1ncc2c(n1)CCN(C(=O)c1cc(C(C)C)c(O)cc1O)C2 | 238 | 2340 | 2370 |  |  |  |  | 
14 | CCN(CC)c1nc(OCCOC)nc2c1CN(C(=O)c1cc(C(C)C)c(O)cc1O)CC2 | 102 | 3570 | 2890 | 3.08 | 107 | 95.9 (≈ 209 µM) | 1100 | 10.8
15 | COc1ncc2c(n1)CCN(C(=O)c1cc(C(C)C)c(O)cc1O)C2 | 75 | 1160 | 630 |  |  |  | 498 | 6.6
16 | Cc1ncc2c(n1)CN(C(=O)c1cc(Cl)c(O)cc1O)C2 | 474 | 10700 | 5480 |  |  |  |  | 
17 | CNc1ncc2c(n1)CCN(C(=O)c1cc(C(C)C)c(O)cc1O)C2 | 113 | 740 | 1250 |  |  |  |  | 
18 | CC(C)c1cc(C(=O)N2CCc3nc(N4CCCCC4)ncc3C2)c(O)cc1O | 172 | 1550 | 4460 |  |  |  |  | 
19 | CC(C)c1cc(C(=O)N2CCc3nc(OCCN4CCCCC4)ncc3C2)c(O)cc1O | 30 | 780 | 2330 | 1.21 | 20.5 | 175 (≈ 396 µM) |  | 
20 | CNc1nc(OCCOC)nc2c1CN(C(=O)c1cc(C(C)C)c(O)cc1O)CC2 | 17 | 270 | 290 | 2.21 | 57.5 | 178 (≈ 427 µM) | 196 | 11.5
21 | Cc1ncc2c(n1)CN(C(=O)c1cc(C(C)C)c(O)cc1O)C2 | 38 | 1630 | 2140 |  | 27 |  | 50 | 1.3
22 | CC(C)c1cc(C(=O)N2CCc3nc(OC4CCOCC4)ncc3C2)c(O)cc1O | 56 | 600 | 820 |  |  |  |  | 
23 | CCOc1ncc2c(n1)CCN(C(=O)c1cc(C(C)C)c(O)cc1O)C2 | 56 | 760 | 620 | 2.95 | 72.4 | 66 (≈ 185 µM) | 561 | 10

Row | SMILES | IC50 [1] [nM] | IC50 (HCT-116) [nM] | IC50 (MCF7) [nM] | logD [2] | Papp [3] [×10⁻⁶ cm/s] | solubility [4] [µg/mL] | IC50 (Endoplasmin) [nM] | Ratio IC50 [5]
24 | CCN(CC)CCOc1ncc2c(n1)CCN(C(=O)c1cc(C(C)C)c(O)cc1O)C2 | 32 | 890 | 2900 | 1.17 | 25.7 | 151 (≈ 353 µM) | 217 | 6.8
25 | CC(C)c1cc(C(=O)N2CCc3nc(OCCN4CCOCC4)ncc3C2)c(O)cc1O | 28 | 1060 | 1230 | 1.48 | 30.2 | 140 (≈ 316 µM) |  | 
26 | CCCOc1ncc2c(n1)CCN(C(=O)c1cc(C(C)C)c(O)cc1O)C2 | 60 | 1080 | 1340 |  |  |  | 498 | 8.3
27 | CC(=O)N1CCN(c2ncc3c(n2)CCN(C(=O)c2cc(C(C)C)c(O)cc2O)C3)CC1 | 270 | 1600 | 3620 |  |  |  |  | 
28 | CCCCN(CCCC)c1ncc2c(n1)CCN(C(=O)c1cc(C(C)C)c(O)cc1O)C2 | 343 | 1290 | 1120 |  |  |  |  | 
29 | CC(C)c1cc(C(=O)N2CCc3nc(OC4CCN(C)CC4)ncc3C2)c(O)cc1O | 76 | 1700 | 1790 |  |  |  |  | 
30 | COCCOc1nc2c(c(OC(C)C)n1)CN(C(=O)c1cc(C(C)C)c(O)cc1O)CC2 | 58 | 740 | 250 | 3.84 | 79.4 | 40.2 (≈ 90.2 µM) | 1320 | 22.7
31 | CCOc1nc(OCCOC)nc2c1CN(C(=O)c1cc(C(C)C)c(O)cc1O)CC2 | 26 | 320 | 180 | 2.74 | 77.3 | 86.1 (≈ 200 µM) | 608 | 23.4
32 | COCCOc1nc2c(c(N(C)C)n1)CN(C(=O)c1cc(C(C)C)c(O)cc1O)CC2 | 16 | 260 | 330 | 2.35 | 83 | 153 (≈ 355 µM) | 195 | 12.2
33 | CCN1CCN(c2ncc3c(n2)CCN(C(=O)c2cc(C(C)C)c(O)cc2O)C3)CC1 | 191 | 1650 | 1430 |  |  |  |  | 
34 | Cc1ncc2c(n1)CCN(C(=O)c1cc(Cl)c(O)cc1O)C2 | 101 |  |  |  |  |  |  | 
35 | CCCCOc1ncc2c(n1)CCN(C(=O)c1cc(C(C)C)c(O)cc1O)C2 | 88 | 1270 | 880 |  |  |  | 670 | 7.6
36 | CCCNc1nc(OCCOC)nc2c1CN(C(=O)c1cc(C(C)C)c(O)cc1O)CC2 | 32 | 400 | 350 | 2.92 | 78.7 | 114 (≈ 257 µM) | 796 | 24.9
37 | CC(C)COc1ncc2c(n1)CCN(C(=O)c1cc(C(C)C)c(O)cc1O)C2 | 65 | 1230 | 1330 |  |  |  | 706 | 10.9
38 | CC(C)c1cc(C(=O)N2CCc3nc(N(C)C)ncc3C2)c(O)cc1O | 164 | 1020 | 1390 |  |  |  |  | 
39 | COCCOc1nc2c(c(NC(C)C)n1)CN(C(=O)c1cc(C(C)C)c(O)cc1O)CC2 | 30 | 790 | 250 | 2.98 | 62.4 | 137 (≈ 309 µM) | 787 | 26.2
40 | CC(C)c1cc(C(=O)N2CCc3nc(OCCN4CCCC4)ncc3C2)c(O)cc1O | 29 | 980 | 1930 | 1.12 | 3.06 | 146 (≈ 341 µM) |  | 
41 | CC(C)Nc1ncc2c(n1)CCN(C(=O)c1cc(C(C)C)c(O)cc1O)C2 | 222 | 2430 | 2680 |  |  |  |  | 
42 | CC(C)c1cc(C(=O)N2CCc3nc(OCCN(C)C)ncc3C2)c(O)cc1O | 30 | 2380 | 1580 | 1.04 | 3.25 | 148 (≈ 370 µM) | 290 | 9.7
43 | COCCOc1nc2c(c(OC)n1)CN(C(=O)c1cc(C(C)C)c(O)cc1O)CC2 | 30 | 250 | 140 | 2.56 | 75.8 | 93.5 (≈ 224 µM) | 232 | 7.7
44 | CC(C)c1cc(C(=O)N2CCc3nc(OC4CCCC4)ncc3C2)c(O)cc1O | 71 | 1720 | 1190 |  |  |  |  | 
45 | Cc1ncc2c(n1)CCN(C(=O)c1cc(Br)c(O)cc1O)C2 | 132 | 1530 | 1730 |  |  |  |  | 
